± gives the expanded uncertainty stated by the source.
Conditions: 283.15 K, Liquid, Vibrating tube method

Molecule `FC(C(F)(F)F)C(F)(F)F` [1,1,1,2,3,3,3-heptafluoropropane] has a mass density (19911 kPa) of 1535.8 ± 1.6 kg/m3, a mass density (19949 kPa) of 1535.8 ± 1.6 kg/m3 and a mass density (19977 kPa) of 1536.1 ± 1.6 kg/m3. It also gave a mass density (20004 kPa) of 1536 ± 1.6 kg/m3, a mass density (20033 kPa) of 1536.1 ± 1.6 kg/m3 and a mass density (20218 kPa) of 1536.8 ± 1.6 kg/m3. It also gave a mass density (20257 kPa) of 1536.9 ± 1.6 kg/m3, a mass density (20300 kPa) of 1537.1 ± 1.6 kg/m3 and a mass density (20333 kPa) of 1537.1 ± 1.6 kg/m3. For the same molecule, the mass density (20396 kPa) was 1537.4 ± 1.6 kg/m3, the mass density (20492 kPa) was 1537.8 ± 1.6 kg/m3 and the mass density (20536 kPa) was 1538 ± 1.6 kg/m3. It also gave a mass density (20566 kPa) of 1538 ± 1.6 kg/m3, a mass density (20605 kPa) of 1538.1 ± 1.6 kg/m3 and a mass density (20635 kPa) of 1538.2 ± 1.6 kg/m3. For the same molecule, the mass density (20671 kPa) was 1538.4 ± 1.6 kg/m3, the mass density (20709 kPa) was 1538.4 ± 1.6 kg/m3 and the mass density (20746 kPa) was 1538.6 ± 1.6 kg/m3. It also gave a mass density (20776 kPa) of 1538.6 ± 1.6 kg/m3, a mass density (20810 kPa) of 1538.7 ± 1.6 kg/m3 and a mass density (20840 kPa) of 1538.9 ± 1.6 kg/m3. The mass density (20879 kPa) was 1539.1 ± 1.7 kg/m3, the mass density (20918 kPa) was 1539.3 ± 1.7 kg/m3 and the mass density (20961 kPa) was 1539.3 ± 1.7 kg/m3. The mass density (20991 kPa) was 1539.4 ± 1.7 kg/m3, the mass density (21029 kPa) was 1539.6 ± 1.7 kg/m3 and the mass density (21058 kPa) was 1539.4 ± 1.7 kg/m3. For the same molecule, the mass density (21099 kPa) was 1539.7 ± 1.7 kg/m3, the mass density (21129 kPa) was 1539.8 ± 1.7 kg/m3 and the mass density (21172 kPa) was 1539.9 ± 1.7 kg/m3. It also gave a mass density (21208 kPa) of 1540.1 ± 1.7 kg/m3, a mass density (21242 kPa) of 1540.3 ± 1.7 kg/m3 and a mass density (21281 kPa) of 1540.4 ± 1.7 kg/m3. For the same molecule, the mass density (21310 kPa) was 1540.4 ± 1.7 kg/m3, the mass density (21350 kPa) was 1540.7 ± 1.7 kg/m3 and the mass density (21418 kPa) was 1540.9 ± 1.7 kg/m3. For the same molecule, the mass density (21453 kPa) was 1540.9 ± 1.7 kg/m3, the mass density (21503 kPa) was 1541.2 ± 1.7 kg/m3 and the mass density (21541 kPa) was 1541.2 ± 1.7 kg/m3. The mass density (21571 kPa) was 1541.3 ± 1.7 kg/m3, the mass density (21610 kPa) was 1541.4 ± 1.7 kg/m3 and the mass density (21645 kPa) was 1541.5 ± 1.7 kg/m3. For the same molecule, the mass density (21684 kPa) was 1541.6 ± 1.7 kg/m3, the mass density (21709 kPa) was 1541.6 ± 1.7 kg/m3 and the mass density (21753 kPa) was 1541.9 ± 1.7 kg/m3. It also gave a mass density (21784 kPa) of 1542 ± 1.7 kg/m3, a mass density (21834 kPa) of 1542.2 ± 1.7 kg/m3 and a mass density (21870 kPa) of 1542.3 ± 1.7 kg/m3. The mass density (21901 kPa) was 1542.3 ± 1.7 kg/m3, the mass density (21936 kPa) was 1542.5 ± 1.7 kg/m3 and the mass density (21972 kPa) was 1542.7 ± 1.7 kg/m3. For the same molecule, the mass density (22011 kPa) was 1542.7 ± 1.7 kg/m3, the mass density (22041 kPa) was 1542.8 ± 1.7 kg/m3 and the mass density (22080 kPa) was 1543.1 ± 1.7 kg/m3. For the same molecule, the mass density (22115 kPa) was 1543.2 ± 1.7 kg/m3, the mass density (22145 kPa) was 1543.2 ± 1.7 kg/m3 and the mass density (22190 kPa) was 1543.1 ± 1.7 kg/m3. For the same molecule, the mass density (22231 kPa) was 1543.5 ± 1.7 kg/m3, the mass density (22261 kPa) was 1543.6 ± 1.7 kg/m3 and the mass density (22302 kPa) was 1543.7 ± 1.7 kg/m3. The mass density (22349 kPa) was 1543.9 ± 1.7 kg/m3, the mass density (22379 kPa) was 1543.9 ± 1.7 kg/m3 and the mass density (22424 kPa) was 1544 ± 1.7 kg/m3. It also gave a mass density (22459 kPa) of 1544.1 ± 1.7 kg/m3, a mass density (22539 kPa) of 1544.5 ± 1.7 kg/m3 and a mass density (22579 kPa) of 1544.6 ± 1.7 kg/m3. It also gave a mass density (22710 kPa) of 1545.1 ± 1.7 kg/m3, a mass density (22747 kPa) of 1545.1 ± 1.7 kg/m3 and a mass density (22782 kPa) of 1545.2 ± 1.7 kg/m3. For the same molecule, the mass density (22829 kPa) was 1545.3 ± 1.7 kg/m3, the mass density (22864 kPa) was 1545.6 ± 1.7 kg/m3 and the mass density (22974 kPa) was 1545.8 ± 1.7 kg/m3. For the same molecule, the mass density (23050 kPa) was 1545.9 ± 1.7 kg/m3, the mass density (23131 kPa) was 1546.2 ± 1.7 kg/m3 and the mass density (23178 kPa) was 1546.5 ± 1.7 kg/m3. The mass density (23230 kPa) was 1546.7 ± 1.7 kg/m3, the mass density (23275 kPa) was 1546.8 ± 1.7 kg/m3 and the mass density (23311 kPa) was 1546.9 ± 1.7 kg/m3. The mass density (23342 kPa) was 1546.9 ± 1.7 kg/m3, the mass density (23378 kPa) was 1547.1 ± 1.7 kg/m3 and the mass density (23418 kPa) was 1547.2 ± 1.7 kg/m3. The mass density (23678 kPa) was 1548 ± 1.7 kg/m3, the mass density (23750 kPa) was 1548.3 ± 1.7 kg/m3 and the mass density (23792 kPa) was 1548.5 ± 1.7 kg/m3. It also gave a mass density (24059 kPa) of 1549.2 ± 1.7 kg/m3, a mass density (24099 kPa) of 1549.4 ± 1.7 kg/m3 and a mass density (24146 kPa) of 1549.5 ± 1.7 kg/m3. For the same molecule, the mass density (24192 kPa) was 1549.5 ± 1.7 kg/m3, the mass density (24228 kPa) was 1549.8 ± 1.7 kg/m3 and the mass density (24269 kPa) was 1549.9 ± 1.7 kg/m3. For the same molecule, the mass density (24309 kPa) was 1550.1 ± 1.7 kg/m3, the mass density (24608 kPa) was 1550.8 ± 1.7 kg/m3 and the mass density (24649 kPa) was 1551 ± 1.7 kg/m3. For the same molecule, the mass density (24695 kPa) was 1551.2 ± 1.7 kg/m3, the mass density (24731 kPa) was 1551.2 ± 1.7 kg/m3 and the mass density (24761 kPa) was 1551.4 ± 1.7 kg/m3. For the same molecule, the mass density (24807 kPa) was 1551.5 ± 1.7 kg/m3, the mass density (24838 kPa) was 1551.8 ± 1.7 kg/m3 and the mass density (24869 kPa) was 1551.8 ± 1.7 kg/m3. For the same molecule, the mass density (24920 kPa) was 1551.9 ± 1.7 kg/m3, the mass density (24950 kPa) was 1552 ± 1.7 kg/m3 and the mass density (24990 kPa) was 1552.1 ± 1.7 kg/m3. The mass density (25031 kPa) was 1552.2 ± 1.7 kg/m3.

Source: the NIST ThermoML archive (doi:10.1021/je700260f)
